Literature values, collected in patent US20200038318A1, “ORAL MEDICATION FORMULATIONS” (GRUNBIOTICS PTY LTD, priority 2016, published 2020).

Tested on: patients with major depressive disorder who have a partial response or no response to SSRIs
Details: 15 mg/day

CN1c2c([nH]c(N)nc2=O)NC[C@@H]1CNc1ccc(C(=O)N[C@@H](CCC(=O)O)C(=O)O)cc1 [L-methylfolate]
Efficacy, safety and tolerability as adjunctive treatment: effective safe and relatively well tolerated
